Experiments:
Assay type in all cases: binding
OsMDHAR [1] = biological target: T1, OsMDHAR (Oryza sativa, UniProt Q652L6, E196A); test: X-ray crystal structure, […] Å; conditions: crystal soaked with 50 mM NADPH until colourless; FAD bound
T1 construct: gene MDAR3; amplified from rice cDNA; monomer by size exclusion

OsMDHAR [2] = biological target: T2, OsMDHAR (Oryza sativa, UniProt Q652L6); test: X-ray crystal structure, […] Å; conditions: co-purified FAD, one per monomer; NAD-free crystal
T2 construct: gene MDAR3; amplified from rice cDNA; monomer by size exclusion

OsMDHAR [3] = biological target: T1, OsMDHAR; test: isothermal titration calorimetry; conditions: text names both NADH and NAD for the titrated ligand
OsMDHAR [4] = biological target: T2, OsMDHAR; test: isothermal titration calorimetry; conditions: text names both NADH and NAD for the titrated ligand
OsMDHAR [5] = biological target: T3, OsMDHAR (Oryza sativa, UniProt Q652L6, Y349F); test: X-ray crystal structure, […] Å; conditions: crystal soaked with 10 mM NADH, then ISD; quaternary complex with FAD and ISD
T3 construct: gene MDAR3; amplified from rice cDNA; monomer by size exclusion
T3 sequence (Q652L6 whole entry Y349F): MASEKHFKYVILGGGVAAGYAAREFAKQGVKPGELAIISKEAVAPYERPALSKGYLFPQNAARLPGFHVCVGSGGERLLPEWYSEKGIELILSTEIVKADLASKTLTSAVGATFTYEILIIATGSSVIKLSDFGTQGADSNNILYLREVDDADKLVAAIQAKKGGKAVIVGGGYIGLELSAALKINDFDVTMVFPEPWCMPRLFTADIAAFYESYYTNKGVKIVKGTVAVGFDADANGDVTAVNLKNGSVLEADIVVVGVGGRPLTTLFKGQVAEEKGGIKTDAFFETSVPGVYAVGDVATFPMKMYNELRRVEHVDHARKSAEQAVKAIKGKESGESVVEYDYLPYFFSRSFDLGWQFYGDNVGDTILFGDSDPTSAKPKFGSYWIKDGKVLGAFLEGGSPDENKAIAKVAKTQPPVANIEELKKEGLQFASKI

T2 sequence (Q652L6 whole entry): as the sequence (Q652L6 whole entry Y349F) above, with F349Y counted along it
T1 sequence (Q652L6 whole entry E196A): as the sequence (Q652L6 whole entry Y349F) above, with E196A, F349Y counted along it

NC(=O)c1ccc[n+]([C@@H]2O[C@H](COP(=O)(O)OP(=O)(O)OC[C@H]3O[C@@H](n4cnc5c(N)ncnc54)[C@H](OP(=O)(O)O)[C@@H]3O)[C@@H](O)[C@H]2O)c1 [NADP]
X-ray crystal structure, 1.8 Å (OsMDHAR [1]): the structure of the E196A mutant-NADP complex revealed

Cc1cc2nc3c(=O)[nH]c(=O)nc-3n(C[C@H](O)[C@H](O)[C@H](O)COP(=O)(O)OP(=O)(O)OC[C@H]3O[C@@H](n4cnc5c(N)ncnc54)[C@H](O)[C@@H]3O)c2cc1C [FAD]
X-ray crystal structure, 1.7 Å (OsMDHAR [2]): All four structures contain one molecule of FAD per monomer

NC(=O)C1=CN([C@@H]2O[C@H](COP(=O)(O)OP(=O)(O)OC[C@H]3O[C@@H](n4cnc5c(N)ncnc54)[C@H](O)[C@@H]3O)[C@@H](O)[C@H]2O)C=CC1 [NADH]
binding affinity (OsMDHAR [3]): there is no difference between WT and E196A in NAD binding affinity | binding affinity (OsMDHAR [4]): we measured the binding affinity of wild type (WT) and E196A for NADH and NADPH

NC(=O)c1ccc[n+]([C@@H]2O[C@H](COP(=O)(O)OP(=O)(O)OC[C@H]3O[C@@H](n4cnc5c(N)ncnc54)[C@H](O)[C@@H]3O)[C@@H](O)[C@H]2O)c1 [NAD]
X-ray crystal structure, 1.9 Å (OsMDHAR [5]): We also determined quaternary complex structures with FAD, NAD, and AsA or ISD
